Source: US9624241B2 (Incyte Corporation, priority 2013, dated 2017)
Like-named read-outs stand apart in the source and are kept apart here.

Assays:
[1] = tested on: KMS.12.BM cells; test: KMS.12.BM Cell Viability Assay (Example B1); format: cell-based, human; conditions: 3 days, Cell Titer-GLO, read-out: KMS cellular IC50
Experimental: KMS.12.BM cell line (human myeloma) was purchased from JCRB (Osaka, Japan) and maintained in RPMI with 10% FBS culture medium. To measure the cytotoxic activity of the compounds through ATP quantitation, the KMS.12.BM cells are plated in the RPMI culture medium at 5000 cells/well/per 100 μL into a 96-well polystyrene clear black tissue culture plate (Greiner-bio-one through VWR, NJ), in the presence or absence of a concentration range of test compounds. After 3 days, […] Cell Titer-GLO Luminescent (Promega, Madison, Wis.) cell culture agent is added to each well for 10 min. at room temperature to stabilize the luminescent signal. This determines the number of viable cells in culture based on quantitation of the ATP present, which signals the presence of metabolically active cells.

[2] = target: BRD4-BD2 (Homo sapiens (Human), UniProt O60885); test: BRD4 AlphaScreen Assay (Example A1), BRD4-BD2; format: binding; conditions: Assay A1, 20 nM BRD4-BD2, 50 nM H4Ac4 peptide; read-out: BRD4 BD-2 enzyme IC50
Experimental: (§1) BRD4-BD1 and BRD4-BD2 assays were conducted in white 384-well polystyrene plate in a final volume of 20 μL for BD1 and 40 μL for BD2. Inhibitors were first serially diluted in DMSO and added to the plate wells before the addition of other reaction components. […] After plate sealing, the plate was incubated in the dark at room temperature for 75 min. before reading on a PHERAstar FS plate reader (BMG Labtech). IC50 determination was performed by fitting the curve of percent control activity versus the log of the inhibitor concentration using the GraphPad Prism 5.0 software.

[3] = target: BRD4-BD1 (Homo sapiens (Human), UniProt O60885); test: BRD4 AlphaScreen Assay (Example A1), BRD4-BD1; format: binding; conditions: Assay A1, 3.8 nM BRD4-BD1, 50 nM H4Ac4 peptide; read-out: BRD4 BD-1 enzyme IC50
Experimental: as §1

[4] = tested on: BET proteins; test: BET protein inhibition, assay not specified; conditions: comparison of chiral HPLC peaks

SMILES	IC50 ([1]; Homo sapiens, KMS-12-BM, 72 h) [µM]	IC50 [2] [µM]	IC50 [3] [µM]	IC50 [1] [µM]	relative activity of separated enantiomers [4]
Cc1noc(C)c1-c1ccc2[nH]c(=O)n3c2c1OCC3c1ccccn1 (single isomer, unassigned) [Example 15, 7-(3,5-Dimethylisoxazol-4-yl)-4-pyridin-2-yl-4,5-dihydroimidazo[1,5,4-de][1,4]benzoxazin-2(1H)-one]	< 1	< 0.1	< 0.1		
Cc1noc(C)c1-c1ccc2nc(N3CC[C@@H](O)C3)n3c2c1OCC3c1cccnc1 (single isomer, unassigned) [Example 159C]				1 to 10	
Cc1noc(C)c1-c1ccc2[nH]c(=O)n3c2c1OCC3c1ccccn1 (racemic) [Example 13, 7-(3,5-Dimethylisoxazol-4-yl)-4-pyridin-2-yl-4,5-dihydroimidazo[1,5,4-de][1,4]benzoxazin-2(1H)-one]	< 1	< 0.1	< 0.1		
Cc1noc(C)c1-c1ccc2[nH]c(=O)n3c2c1OCC3c1ccccc1 (single isomer, unassigned) [Example 1B, 7-(3,5-Dimethylisoxazol-4-yl)-4-phenyl-4,5-dihydroimidazo[1,5,4-de][1,4]benzoxazin-2(1H)-one]					less active
Cc1noc(C)c1-c1ccc2[nH]c(=O)n3c2c1OCC3c1ccccc1 (single isomer, unassigned) [Example 1A, 7-(3,5-Dimethylisoxazol-4-yl)-4-phenyl-4,5-dihydroimidazo[1,5,4-de][1,4]benzoxazin-2(1H)-one]					more active
Cc1noc(C)c1-c1ccc2nc(N3CCCC(O)C3)n3c2c1OCC3c1ccccc1 (stereo not shown) [Example 58, 1-[7-(3,5-Dimethylisoxazol-4-yl)-4-phenyl-4,5-dihydroimidazo[1,5,4-de][1,4]benzoxazin-2-yl]piperidin-3-ol]		< 0.1	< 0.1		
Cc1noc(C)c1-c1ccc2[nH]c(=O)n3c2c1OCC3c1ccccn1 (single isomer, unassigned) [Example 14, 7-(3,5-Dimethylisoxazol-4-yl)-4-pyridin-2-yl-4,5-dihydroimidazo[1,5,4-de][1,4]benzoxazin-2(1H)-one]		1 to 10	1 to 10		
